{"source": "patent US20200245666A1", "about": "“CANNABINOID EMULSIONS, BEVERAGES AND FOODS” (Lighthouse Strategies, LLC, priority 2019, published 2020)", "origin": "cited, not measured here", "settings": "smoking a 3.55% THC cigarette", "data": [{"compound": "CCCCCc1cc(O)c2c(c1)OC(C)(C)[C@@H]1CCC(C)=C[C@@H]21", "note": "[THC, Δ9-tetrahydrocannabinol]", "values": [{"measurement": "peak plasma level", "value": "152 ± 86.3", "unit": "ng/mL"}, {"measurement": "time of peak plasma level after inhalation", "value": "approximately 10 minutes"}]}]}
